These results are taken from article PMC6145176 (Bioorganic & medicinal chemistry, 2017).

Like-named read-outs stand apart in the source and are kept apart here. Marks after values point to notes of the source that are not given here. Where only a bound is given, the exact number is not on record here.

One series has as its system MAGI-CCR5 cells. In words: MAGI-CCR5 parallel cytotoxicity testing. The series is classed as cell-based. As to conditions: for TC50 (A17 row) / TC50 (NL4-3 row): MAGI-CCR5 cells; for TC50 (A17 row): printed in the A17 line of Table 10; for TC50 (NL4-3 row): printed in the NL4-3 line of Tables 7 and 10; for MAGI-CCR5 TC50: uninfected MAGI-CCR5 cells, 48 h, MTS, concentration that reduces cell viability by 50%.

The next series has as its system HIV wildtype (NL4-3). The series can be described thus: MAGI-CCR5 antiviral assay, HIV wildtype. The series is classed as cell-based. As to conditions: HIV wildtype (NL4-3) in MAGI-CCR5 cells; for IC50: read-out: IC50, virus NL4-3; for IC90: read-out: IC90, virus NL4-3.
Another series deals with HIV-1Ba-L. In words: MAGI-CCR5 antiviral assay. As to conditions: for IC50: concentration that reduces viral replication by 50%; for IC90: read-out: MAGI-CCR5 IC90, concentration that reduces viral replication by 90%. In kind it is cell-based.
The next series concerns PBMCs. In words: PBMC cytotoxicity. As to conditions: six days, MTS, concentration that reduces cell viability by 50%. In kind it is cell-based, human.
Series [1] can be described thus: Microsomal stability in vitro assay. The series is classed as in vitro ADME. As to conditions: percent remaining after incubation for 60 min. at 37 °C, rat liver microsomes.
Series [2] is described as follows: Plasma stability in vitro assay. The series is classed as in vitro ADME. As to conditions: percent remaining after incubation for 60 min. at 37 °C, heparinized rat plasma.
Series [3] can be described thus: Parallel artificial membrane permeation assay. As to conditions: for Papp at 100 μM: PAMPA, pH 7.2.
Series [4] addresses HIV-1 reverse transcriptase (RT) (Human immunodeficiency virus type 1 group M subtype B, UniProt P04585). In words: RT biochemical assay. As to conditions: 10 nM HIV-1 RT, 37 °C, 1 h.
[5] abbreviates: read-out: MAGI-CCR5 IC50, HIV-1Ba-L in MAGI-CCR5 cells, 48 h.
[6] abbreviates: HIV-1Ba-L in MAGI-CCR5 cells, 48 h.
Setting [7] is: Human immunodeficiency virus 1, MAGI-CCR5, 48 h, read-out: MAGI-CCR5 IC50, HIV-1Ba-L in MAGI-CCR5 cells, 48 h.

Regarding “3-Methyl-4-(2-(6-methyl-4-(1-methyl-1H-indol-2-yl)-2-oxo-1,2,3,4-tetrahydropyrimidin-5-yl)thiazol-4-yl)benzonitrile [1at]”, in the series on MAGI-CCR5 cells, the “TC50 (A17 row)” value was above 100 µM, the “TC50 (NL4-3 row)” value was above 100 µM and the “MAGI-CCR5 TC50” value is above 100 µM. Moreover, in the series with HIV wildtype (NL4-3), the IC50 was 0.39 ± 0.05 µM and the IC90 came out at 4.8 ± 0.6 µM. Further, the IC50 in the series on HIV-1Ba-L (setting [5]) came out at 0.39 ± 0.05 µM. Besides, the 90% effect concentration (IC90) in the series with HIV-1Ba-L (setting [6]) turned out to be 1.9 ± 0.3 µM. Moreover, the “PBMC TC50” value with PBMCs is >100 ^d μM.

With “4-(2-(6-Methyl-2-oxo-4-(pyridin-2-yl)-1,2,3,4-tetrahydropyrimidin-5-yl)thiazol-4-yl)benzonitrile [1x]”, the “MAGI-CCR5 TC50” value with MAGI-CCR5 cells was above 100.00 µM. Also, in the series with HIV-1Ba-L (setting [5]), the IC50 came out at 2 ± 0.5 µM. Also, in the series with HIV-1Ba-L (setting [6]), the IC90 was above 100 µM. Moreover, the “PBMC TC50” value with PBMCs is above 100.00 µM.

As to “4-(2-(6-Methyl-2-oxo-4-(pyridin-3-yl)-1,2,3,4-tetrahydropyrimidin-5-yl)thiazol-4-yl)benzonitrile [1y]”, the “MAGI-CCR5 TC50” value with MAGI-CCR5 cells is above 100.00 µM. Besides, the IC50 in the series with HIV-1Ba-L (setting [5]) was found to be 2.9 ± 0.1 µM. The concentration for an effect of 90% (IC90) in the series on HIV-1Ba-L (setting [6]) is above 100 µM. Further, in series [1], the “Microsomal Stability (%)” value came out at 75.55 ± 7.86%. Also, in the series with PBMCs, the “PBMC TC50” value is above 100.00 µM. Besides, in series [2], the “Plasma Stability (%)” value is listed as 89.42 ± 2.93%. The “PAMPA (LogPe)” value in series [3] (polar brain lipid membrane, predicts BBB permeability) is recorded as −7.50 ± 0.10.

For “4-(2-(6-Methyl-2-oxo-4-(pyridin-4-yl)-1,2,3,4-tetrahydropyrimidin-5-yl)thiazol-4-yl)benzonitrile [1z]”, the “MAGI-CCR5 TC50” value in the series on MAGI-CCR5 cells is above 100.00 µM. Also, the IC50 with HIV-1Ba-L (setting [5]) was 1.4 ± 0.4 µM. Further, the IC90 in the series with HIV-1Ba-L (setting [6]) is above 100 µM. Also, in the series with PBMCs, the “PBMC TC50” value is above 100.00 µM.

On to “4-(2-(6-Methyl-2-oxo-4-(quinolin-2-yl)-1,2,3,4-tetrahydropyrimidin-5-yl)thiazol-4-yl)benzonitrile [1aa]”, for which, in the series with MAGI-CCR5 cells, the “MAGI-CCR5 TC50” value is above 100.00 µM. The IC50 in the series on HIV-1Ba-L (setting [5]) was determined as 3.8 ± 1 µM. The IC90 in the series on HIV-1Ba-L (setting [6]) turned out to be 98.3 ± 1.7 µM. The “PBMC TC50” value in the series with PBMCs worked out at 68.3 ± 22.1 µM.

As to “4-(2-(6-Methyl-2-oxo-4-(quinolin-4-yl)-1,2,3,4-tetrahydropyrimidin-5-yl)thiazol-4-yl)benzonitrile [1ab]”, the “MAGI-CCR5 TC50” value in the series with MAGI-CCR5 cells is above 100.00 µM. In addition, the IC50 with HIV-1Ba-L (setting [5]) amounted to 1.5 ± 0.3 µM. Further, the IC90 in the series with HIV-1Ba-L (setting [6]) came out at 12.7 ± 3.6 µM. The “PBMC TC50” value in the series on PBMCs is above 100.00 µM.

For `CC1=C(c2nc(-c3ccc(C#N)cc3)cs2)C(c2cc3ccccc3n2C)NC(=O)N1` (stereo not shown) [1ad, 4-(2-(6-Methyl-4-(1-methyl-1H-indol-2-yl)-2-oxo-1,2,3,4-tetrahydropyrimidin-5-yl)thiazol-4-yl)benzonitrile], in the series on MAGI-CCR5 cells, the “TC50 (A17 row)” value is above 100 µM and the “TC50 (NL4-3 row)” value is above 100 µM. In addition, in the series with HIV-1Ba-L (setting [7]), the IC50 is 0.74 µM. In series [3], the Papp at 100 μM was 0.0891 ×10⁻⁶ cm/s.

Take `CC1=C(c2nc(-c3ccc(C#N)cc3)cs2)C(c2ccc(F)nc2)NC(=O)N1` (stereo not shown) [1ae, 4-(2-(4-(6-Fluoropyridin-3-yl)-6-methyl-2-oxo-1,2,3,4-tetrahydropyrimidin-5-yl)thiazol-4-yl)benzonitrile]: the “TC50 (NL4-3 row)” value in the series on MAGI-CCR5 cells is above 100 µM. The Papp at 100 μM in series [3] is 0.575 ×10⁻⁶ cm/s.

Compound `CC1=C(c2nc(-c3ccc(C#N)cc3)cs2)C(c2ccc(Cl)nc2)NC(=O)N1` (stereo not shown) [1ai, 4-(2-(4-(6-Chloropyridin-3-yl)-6-methyl-2-oxo-1,2,3,4-tetrahydropyrimidin-5-yl)thiazol-4-yl)benzonitrile] showed a Papp at 100 μM in series [3] of 0.0398 ×10⁻⁶ cm/s.

Turning to `CC1=C(c2nc(-c3ccc(C#N)cc3)cs2)C(c2ccc(Br)nc2)NC(=O)N1` (stereo not shown) [1am, 4-(2-(4-(6-Bromopyridin-3-yl)-6-methyl-2-oxo-1,2,3,4-tetrahydropyrimidin-5-yl)thiazol-4-yl)benzonitrile], the “TC50 (NL4-3 row)” value in the series on MAGI-CCR5 cells is above 100 µM. The compound also gave a Papp at 100 μM in series [3] of 0.0151 ×10⁻⁶ cm/s.

In the case of `COc1ccc(C2NC(=O)NC(C)=C2c2nc(-c3ccc(C#N)cc3)cs2)cn1` (stereo not shown) [1an, 4-(2-(4-(6-Methoxypyridin-3-yl)-6-methyl-2-oxo-1,2,3,4-tetrahydropyrimidin-5-yl)thiazol-4-yl)benzonitrile], the “TC50 (NL4-3 row)” value in the series with MAGI-CCR5 cells is above 100 µM. Further, the Papp at 100 μM in series [3] was 0.0562 ×10⁻⁶ cm/s.

In the case of `CC1=C(c2nc(-c3ccc(C#N)cc3)cs2)C(c2ccc(C(F)(F)F)nc2)NC(=O)N1` (stereo not shown) [1ar, 4-(2-(6-Methyl-2-oxo-4-(6-(trifluoromethyl)pyridin-3-yl)-1,2,3,4-tetrahydropyrimidin-5-yl)thiazol-4-yl)benzonitrile], in the series with MAGI-CCR5 cells, the “TC50 (NL4-3 row)” value was above 100 µM.

For `COc1ccc(-c2csc(C3=C(C)NC(=O)NC3c3cccc(O)c3)n2)cc1` (stereo not shown) [1b], in the series on PBMCs, the “PBMC TC50” value is 91 ^e μM.

`CC1=C(c2nc(-c3ccc(C#N)cc3)cs2)C(c2cccc(O)c2)NC(=O)N1` (stereo not shown) [1i, 4-(2-(4-(3-Hydroxyphenyl)-6-methyl-2-oxo-1,2,3,4-tetrahydropyrimidin-5-yl)thiazol-4-yl)benzonitrile]: the “PBMC TC50” value in the series with PBMCs came out at 84 ± 8.2 µM. In series [3], this compound showed a Papp at 100 μM of 0.0145 ×10⁻⁶ cm/s.

In the case of `CC1=C(c2nc(-c3ccc(C#N)cc3)cs2)C(c2ccc(O)cc2)NC(=O)N1` (stereo not shown) [1l, 4-(2-(4-(4-Hydroxyphenyl)-6-methyl-2-oxo-1,2,3,4-tetrahydropyrimidin-5-yl)thiazol-4-yl)benzonitrile], the “TC50 (NL4-3 row)” value with MAGI-CCR5 cells worked out at 46 ± 6.1 µM. Also, the Papp at 100 μM in series [3] was 0.0151 ×10⁻⁶ cm/s.

With `COc1ccc(C2NC(=O)NC(C)=C2c2nc(-c3ccc(C#N)cc3)cs2)cc1` (stereo not shown) [1m, 4-(2-(4-(4-Methoxyphenyl)-6-methyl-2-oxo-1,2,3,4-tetrahydropyrimidin-5-yl)thiazol-4-yl)benzonitrile], in the series with MAGI-CCR5 cells, the “TC50 (NL4-3 row)” value was determined as 5.5 ± 1.0 µM. Moreover, in the series with HIV-1Ba-L (setting [7]), the IC50 was below 0.15 µM. This compound also gave a Papp at 100 μM in series [3] of 0.0776 ×10⁻⁶ cm/s.

With `CC1=C(c2nc(-c3ccc(C#N)cc3)cs2)C(c2ccc(Oc3ccccc3)cc2)NC(=O)N1` (stereo not shown) [1p, 4-(2-(6-Methyl-2-oxo-4-(4-phenoxyphenyl)-1,2,3,4-tetrahydropyrimidin-5-yl)thiazol-4-yl)benzonitrile], the IC50 in the series with HIV-1Ba-L (setting [7]) is below 0.15 µM.

As for `CC1=C(c2nc(-c3ccc(C#N)cc3)cs2)C(c2ccc(OCc3ccccc3)cc2)NC(=O)N1` (stereo not shown) [1q, 4-(2-(4-(4-(Benzyloxy)phenyl)-6-methyl-2-oxo-1,2,3,4-tetrahydropyrimidin-5-yl)thiazol-4-yl)benzonitrile], the IC50 in the series on HIV-1Ba-L (setting [7]) is below 0.15 µM.

`CC1=C(c2nc(-c3ccc(C#N)cc3)cs2)[C@@H](c2cccc(O)c2)NC(=O)N1` [(R)-1i]: in the series with PBMCs, the “PBMC TC50” value was above 100 µM.

For `CC1=C(c2nc(-c3ccc(C#N)cc3)cs2)[C@H](c2cccc(O)c2)NC(=O)N1` [(S)-1i], the “RT biochemical IC50 (μM) ± SD” value in series [4] is “Not active”. The “PBMC TC50” value in the series on PBMCs is above 100 µM.

`Cc1ccnc2c1NC(=O)c1cccnc1N2C1CC1` [NVP, nevirapine, reference compound]: in the series on HIV wildtype (NL4-3), the 50% inhibitory concentration (IC50) amounted to 0.07 ± 0.03 µM and the IC90 amounted to 0.6 ± 0.07 µM.
